From US20140011755A1, “Cardiac Glycosides for Treating Autoimmune Disease” (Department of Veterans Affairs, priority 2010, published 2014)

Legend:
[1] = system: B cell receptor (membrane Ig); assay: B cell receptor mediated B cell proliferation; type: cell-based, mice; details: pre-treatment of B cells; anti-IgM stimulation
Description: Activity was monitored by ^3H-thymidine incorporation as a read-out for proliferation. […] Cell type(s) in the splenocyte population responsive to therapeutic concentrations of cardiac glycoside were determined by identifying the population of cells that responded to a dose-dependent decrease in activity in the presence of stimulant, defined as ligand(s) binding to cognate receptor(s). Activity was analyzed by: ^3H-thymidine or BrdU incorporation to monitor proliferation or by ELISA to monitor cytokine production. Splenic T lymphocytes were isolated by negative selection (MACS, Miltinyi Biotec) and are stimulated with PMA, ConA or through the TCR with anti-CD3/anti-CD28 Dynabeads (Invitrogen) and collagen II (all non-TNFR receptors/pathways). […] Peritoneal and bone marrow-derived macrophages were isolated from CIA mice in the presence of M-CSF growth factor and were stimulated with TNF and CD40 ligand (CD40L). […] Splenic B lymphocytes were isolated by negative selection (MACS, Miltinyi Biotec) and were stimulated with BAFF (BLyS), CD40L or through the BCR with anti-IgM u-chain specific antibodies.

[2] = oral; cited from earlier work
[3] = system: TNF-mediated NFκB activity in HeLa cells; assay: NFκB luciferase reporter assay in TNF-stimulated HeLa cells; type: cell-based; details: pre-treatment 6 hours with 0-500 nM, 50 ng/mL TNF
Description: FIG. 8. […] Values represent mean light units produced. Error bars represent SEM, and statistical significance was determined by unpaired T-test. Single and double asterisks represent P-values of 0.01 or 0.001, respectively. […] Samples were harvested at designated time points and were fractionated into nuclear and cytoplasmic lysates (Pierce). Lysates were quantified using BCA (Pierce), and were equally loaded according to total protein. Membranes were probed for levels of nuclear phospho-p65 (ReIA), phospho-ReIB, and histone (histone served as loading control and fractionation method control) and cytoplasmic degradation of IκBα (beta-tubulin served as loading control and fractionation method control).
HeLa cells were co-transfected with the reporter pNFκB-luc and control vector pTAL (Renilla) for 18 h prior to incubation with 0-500 nM cardiac glycoside for 6 h. Cells are stimulated with 50 ng/mL TNF. […] FIG. 8 B).

phospho-STAT3 (Y705) = assay: STAT3 phosphorylation in cells from CIA mice (flow cytometry, Western blot); type: cell-based; details: splenic B cells from CIA mice, 33 nM, 30 minutes / 0-60 minutes
Description: FIG. 15. […] Flow cytometry was performed using the FACSAria II (Bectin Dickenson). […] Lysates were quantified for total protein using the Nanodrop, and verification was performed by BCA (Pierce). Lysates were loaded onto SDS-PAGE and transferred to PVDF (Millipore). Membranes were blotted for phospho-STAT3 (Y705) and beta-actin.
Cardiac glycosides were administered at endogenous levels (sub- and nano Molar) or therapeutic levels (nano Molar) to modulate transcription factor activity and gene expression. Alteration of STAT1 activity has been observed in Alzheimer's disease and susceptibility to lethal intracellular pathogenic diseases (Kitamura et al, 1997; Chapgier et al, 2009). Aberrant STAT2 levels have been linked to inflammatory disease such as Crohn's disease (CD), ulcerative colitis (UC) and inflammatory bowel disease (IBD), and cancers such as colorectal and skin cancers (Gamero et al, 2010). STAT3 signaling is a critical component of Th17-dependent autoimmune processes. […] Mice with targeted deletion of Stat3 in T cells are resistant to experimental autoimmune encephalomyelitis, which is a multiple sclerosis (MS) model. […] STAT phosphorylation can be assessed by phospho-flow cytometric analysis, Western immunoblot and ELISA of circulating PBMCs or of biopsied tissues.

[4] = system: IL-10 cytokine secretion from B cells; assay: IL-10 secretion (ELISA) by splenic B cells from treated MRL-Ipr mice; type: cell-based
Description: FIG. 19. […] MACS-purified B cells from vehicle or digitoxin-treated 23 week-old female MRL-Ipr mice were harvested from the spleen. 2×10^5 B cells were incubated either media, mifespristone (0.8 nM), Jak inhibitor I (15 nM), STAT3 inhibitor VI (500 μM) or dasatinib (1.1 nM) for 60 minutes, washed and incubated for 48 hr at 37° C. Cell supernatant was collected and ELISAs were used to quantify the amount of secreted IL-10 cytokine in each condition. Data represent the average of triplicate conditions and error bars represent the SEM. Statistical significance was performed using the student t-test.

[5] = system: naïve CD4+ T cells, regulatory T cells; assay: Mixed lymphocyte study, pre-treated CIA B cells with naïve CD4+ T cells; type: cell-based, mice; details: B cells treated 33 nM for 1 hr, co-culture 72 hr
Description: FIG. 25. […] (A) Representative data from mixed lymphocyte studies. […] B cells were washed, replated in complete RPMI supplemented with BAFF (1 ng/mL), anti-CD3 antibody (4 μg/mL) and were added to 5×10^5 naïve CD4^+ T cells purified by MACS. Cells were incubated for 72 hr prior to harvest. IL-6, IL-10, TGFβ and IL-17 cytokine levels were measured by ELISA (R&D Systems, Peprotech, and eBiosciences). Data represent the average absorbance (A450) of triplicates and error bars represent the SEM. […] Cells were fixed in 4% paraformaldehyde for 15 minutes, washed twice with PBS and blocked with FACS buffer. Cells were stained for regulatory T cells using anti-TCRβ, anti-CD4, anti-CD25 and anti-FoxP3 antibodies (Cell Signaling Technologies, R&D Systems, AbCam). FACS was performed on the FACS Aria (Becton-Dickenson). Data represent the average population in 500,000 cells from 4 mice per treatment group. Error bars represent the SEM.
It is known that B cells can regulate T cell differentiation and in many states of autoimmune disease, an imbalance of Th1, Th2, and Th17 T cell populations exist. […] We performed studies to determine the regulatory effector function of B cells pre-treated with cardiac glycoside on T cell differentiation. […]

C[C@H]1O[C@@H](O[C@H]2[C@@H](O)C[C@H](O[C@H]3[C@@H](O)C[C@H](O[C@H]4CC[C@@]5(C)[C@H](CC[C@@H]6[C@@H]5CC[C@]5(C)[C@@H](C7=CC(=O)OC7)CC[C@]65O)C4)O[C@@H]3C)O[C@@H]2C)C[C@H](O)[C@@H]1O [Digitoxin, digitoxin]
B cell receptor mediated B cell proliferation [1]: did not inhibit
oral bioavailability [2]: > 90%
TNF-mediated NFκB activation (luciferase light units) [3]: reduced TNF-mediated NFκB activation in a dose-dependent fashion
STAT3 phosphorylation (Y705) (phospho-STAT3 (Y705)): stimulate STAT3 phosphorylation
secreted IL-10 cytokine ([4]; 2×10^5 B cells from vehicle or digitoxin-treated 23 week-old mice, 48 hr, ELISA): induces IL-10 cytokine secretion
mechanism dependence of IL-10 secretion (inhibitor pre-incubation) ([4]; mifespristone 0.8 nM, Jak inhibitor I 15 nM, STAT3 inhibitor VI 500 μM or dasatinib 1.1 nM for 60 minutes): dependent on steroid receptors, Jak activity, and STAT3 activity, but not BCR-ABL or Src-like Family Kinase activity
induction of regulatory T cells in vitro [5]: induce regulatory T cells
